Patent publication US10750743B2, “Pyridazinone herbicides” (E.I. DU PONT DE NEMOURS AND COMPANY, priority 2015, dated 2020)

Experiments:
Type in all cases: in vivo
[1] = test system: barnyardgrass (Echinochloa crus-galli); test: Test B flooded paddy test, visual rating; conditions: Echinochloa crus-galli, 360 h; Flood, 250 g ai/ha, applied to paddy water, rated after 13 to 15 d; read-out: Barnyardgrass plant response rating (0 to 100 scale, 0 is no effect, 100 is complete control)
Method in brief: (§1)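 Ratings use a 0-100 visual scale, where 100 is complete control, and compare treated plants with controls after 13 to 15 d of greenhouse growth. Compound went straight into paddy water kept 3 cm over the soil surface, applied to seedlings at the 2-leaf stage.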

[2] = test system: sedge, umbrella (small-flower umbrella sedge, Cyperus difformis); test: Test B flooded paddy test, visual rating; conditions: Cyperus difformis, 360 h; Flood, 250 g ai/ha, applied to paddy water, rated after 13 to 15 d; read-out: Sedge, Umbrella plant response rating (0 to 100 scale, 0 is no effect, 100 is complete control)
Method in brief: as §1

[3] = test system: ducksalad (Heteranthera limosa); test: Test B flooded paddy test, visual rating; conditions: Heteranthera limosa, 360 h; Flood, 250 g ai/ha, applied to paddy water, rated after 13 to 15 d; read-out: Ducksalad plant response rating (0 to 100 scale, 0 is no effect, 100 is complete control)
Method in brief: as §1

rice (Oryza sativa) = test: Test B flooded paddy test, visual rating; conditions: Oryza sativa, 360 h; Flood, 250 g ai/ha, applied to paddy water, rated after 13 to 15 d; read-out: Rice plant response rating (0 to 100 scale, 0 is no effect, 100 is complete control)
Method in brief: as §1

[4] = test system: pigweed (Amaranthus retroflexus); test: Test A postemergence application, visual injury rating; conditions: Amaranthus retroflexus, post-emergence, 240 h, 0 to 100 scale, 0 no effect, 100 complete control, read-out: Pigweed plant response rating; for pest or weed control at 125 g/ha: 125 g ai/ha; for pest or weed control at 500 g/ha: 500 g ai/ha
Method in brief: (§2)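 Injury ratings, 0 (no effect) to 100 (complete control), were scored visually versus untreated plants roughly 10 d after treatment under greenhouse conditions. Treatments used surfactant-containing solvent formulations, sprayed onto soil preemergence or onto one- to two-leaf seedlings (2-10 cm) postemergence, grown in a loam-sand mix.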

[5] = test system: barnyardgrass (Echinochloa crus-galli); test: as above; conditions: Echinochloa crus-galli, post-emergence, 240 h, 0 to 100 scale, 0 no effect, 100 complete control, read-out: Barnyardgrass plant response rating; for pest or weed control at 125 g/ha: 125 g ai/ha; for pest or weed control at 500 g/ha: 500 g ai/ha
Method in brief: as §2

[6] = test system: ryegrass, It. (Italian ryegrass, Lolium multiflorum); test: as above; conditions: Lolium multiflorum, post-emergence, 240 h, 0 to 100 scale, 0 no effect, 100 complete control, read-out: Ryegrass, It. plant response rating; for pest or weed control at 125 g/ha: 125 g ai/ha; for pest or weed control at 500 g/ha: 500 g ai/ha
Method in brief: as §2

[7] = test system: foxtail, giant (giant foxtail, Setaria faberii); test: as above; conditions: Setaria faberi, post-emergence, 240 h, 0 to 100 scale, 0 no effect, 100 complete control, read-out: Foxtail, Giant plant response rating; for pest or weed control at 125 g/ha: 125 g ai/ha; for pest or weed control at 500 g/ha: 500 g ai/ha
Method in brief: as §2

corn (Zea mays) = test: as above; conditions: Zea mays, post-emergence, 240 h, 0 to 100 scale, 0 no effect, 100 complete control, read-out: Corn plant response rating; for plant injury at 125 g/ha: 125 g ai/ha; for plant injury at 500 g/ha: 500 g ai/ha
Method in brief: as §2

[8] = test system: galium (catchweed bedstraw, Galium aparine); test: as above; conditions: Galium, post-emergence, 240 h, 0 to 100 scale, 0 no effect, 100 complete control, read-out: Galium plant response rating; for pest or weed control at 125 g/ha: 125 g ai/ha; for pest or weed control at 500 g/ha: 500 g ai/ha
Method in brief: as §2

[9] = test system: ragweed (common ragweed, Ambrosia elatior); test: as above; conditions: Ambrosia artemisiifolia, post-emergence, 240 h, 0 to 100 scale, 0 no effect, 100 complete control, read-out: Ragweed plant response rating; for pest or weed control at 125 g/ha: 125 g ai/ha; for pest or weed control at 500 g/ha: 500 g ai/ha
Method in brief: as §2

kochia (Kochia scoparia) [10] = test: as above; conditions: Bassia scoparia, post-emergence, 240 h, 0 to 100 scale, 0 no effect, 100 complete control, read-out: Kochia plant response rating; for pest or weed control at 125 g/ha: 125 g ai/ha; for pest or weed control at 500 g/ha: 500 g ai/ha
Method in brief: as §2

[11] = test system: pigweed (Amaranthus retroflexus); test: Test A preemergence, directed soil spray, visual injury rating; conditions: Amaranthus retroflexus, pre-emergence, 240 h, 0 is no effect, 100 is complete control, read-out: Plant response rating (0 to 100 scale), Pigweed; for pest or weed control at 125 g/ha: 125 g ai/ha; for pest or weed control at 500 g/ha: 500 g ai/ha
Method in brief: as §2

[12] = test system: barnyardgrass (Echinochloa crus-galli); test: as above; conditions: Echinochloa crus-galli, pre-emergence, 240 h, 0 is no effect, 100 is complete control, read-out: Plant response rating (0 to 100 scale), Barnyardgrass; for pest or weed control at 125 g/ha: 125 g ai/ha; for pest or weed control at 500 g/ha: 500 g ai/ha
Method in brief: as §2

[13] = test system: ryegrass, It. (Italian ryegrass, Lolium multiflorum); test: as above; conditions: Lolium multiflorum, pre-emergence, 240 h, 0 is no effect, 100 is complete control, read-out: Plant response rating (0 to 100 scale), Ryegrass, It.; for pest or weed control at 125 g/ha: 125 g ai/ha; for pest or weed control at 500 g/ha: 500 g ai/ha
Method in brief: as §2

[14] = test system: foxtail, giant (giant foxtail, Setaria faberii); test: as above; conditions: Setaria faberi, pre-emergence, 240 h, 0 is no effect, 100 is complete control, read-out: Plant response rating (0 to 100 scale), Foxtail, Giant; for pest or weed control at 125 g/ha: 125 g ai/ha; for pest or weed control at 500 g/ha: 500 g ai/ha
Method in brief: as §2

[15] = test system: ragweed (common ragweed, Ambrosia elatior); test: as above; conditions: Ambrosia artemisiifolia, pre-emergence, 240 h, 0 is no effect, 100 is complete control, read-out: Plant response rating (0 to 100 scale), Ragweed; for pest or weed control at 125 g/ha: 125 g ai/ha; for pest or weed control at 500 g/ha: 500 g ai/ha
Method in brief: as §2

kochia (Kochia scoparia) [16] = test: as above; conditions: Bassia scoparia, pre-emergence, 240 h, 0 is no effect, 100 is complete control, read-out: Plant response rating (0 to 100 scale), Kochia; for pest or weed control at 125 g/ha: 125 g ai/ha; for pest or weed control at 500 g/ha: 500 g ai/ha
Method in brief: as §2

With `Cc1cc2ccc(C)c(-c3c(O)c(C)nn(C)c3=O)c2o1` [Compound 10, 4-(2,6-dimethyl-7-benzofuranyl)-5-hydroxy-2,6-dimethyl-3(2H)-pyridazinone] the pest or weed control at 250 g/ha [1] was 0%, the pest or weed control at 250 g/ha [2] was 0% and the pest or weed control at 250 g/ha [3] was 0%. The plant injury at 250 g/ha (rice (Oryza sativa)) was 0%, the pest or weed control at 125 g/ha [4] was 90% and the pest or weed control at 500 g/ha [4] was 100%. The pest or weed control at 125 g/ha [5] was 50%, the pest or weed control at 500 g/ha [5] was 90% and the pest or weed control at 125 g/ha [6] was 100%. For the same compound, the pest or weed control at 500 g/ha [6] was 100%, the pest or weed control at 125 g/ha [7] was 80% and the pest or weed control at 500 g/ha [7] was 90%. It also gave a plant injury at 125 g/ha (corn (Zea mays)) of 10%, a plant injury at 500 g/ha (corn (Zea mays)) of 30% and a pest or weed control at 125 g/ha [8] of 100%. The pest or weed control at 500 g/ha [8] was 100%, the pest or weed control at 125 g/ha [9] was 100% and the pest or weed control at 500 g/ha [9] was 100%. The pest or weed control at 125 g/ha (kochia (Kochia scoparia) [10]) was 100%, the pest or weed control at 500 g/ha (kochia (Kochia scoparia) [10]) was 100% and the pest or weed control at 125 g/ha [11] was 100%. The pest or weed control at 500 g/ha [11] was 100%, the pest or weed control at 125 g/ha [12] was 80% and the pest or weed control at 500 g/ha [12] was 90%. For the same compound, the pest or weed control at 125 g/ha [13] was 100%, the pest or weed control at 500 g/ha [13] was 100% and the pest or weed control at 125 g/ha [14] was 80%. It also gave a pest or weed control at 500 g/ha [14] of 100%, a pest or weed control at 125 g/ha [15] of 90% and a pest or weed control at 500 g/ha [15] of 90%. It also gave a pest or weed control at 125 g/ha (kochia (Kochia scoparia) [16]) of 100% and a pest or weed control at 500 g/ha (kochia (Kochia scoparia) [16]) of 100%.
For `CC(=O)Oc1c(C)nn(C)c(=O)c1-c1cccc2cc(C)oc12` [Compound 13, 5-(acetyloxy)-2,6-dimethyl-4-(2-methyl-7-benzofuranyl)-3 (2H)-pyridazinone], the pest or weed control at 125 g/ha [4] was 60%, the pest or weed control at 500 g/ha [4] was 70% and the pest or weed control at 125 g/ha [5] was 0%. It also gave a pest or weed control at 500 g/ha [5] of 50%, a pest or weed control at 125 g/ha [6] of 90% and a pest or weed control at 500 g/ha [6] of 100%. For the same compound, the pest or weed control at 125 g/ha [7] was 30%, the pest or weed control at 500 g/ha [7] was 50% and the plant injury at 125 g/ha (corn (Zea mays)) was 0%. It also gave a plant injury at 500 g/ha (corn (Zea mays)) of 20%, a pest or weed control at 125 g/ha [8] of 80% and a pest or weed control at 500 g/ha [8] of 90%. It also gave a pest or weed control at 125 g/ha [9] of 50%, a pest or weed control at 500 g/ha [9] of 70% and a pest or weed control at 125 g/ha (kochia (Kochia scoparia) [10]) of 50%. It also gave a pest or weed control at 500 g/ha (kochia (Kochia scoparia) [10]) of 80%, a pest or weed control at 125 g/ha [11] of 40% and a pest or weed control at 500 g/ha [11] of 100%. It also gave a pest or weed control at 125 g/ha [12] of 20%, a pest or weed control at 500 g/ha [12] of 60% and a pest or weed control at 125 g/ha [13] of 100%. It also gave a pest or weed control at 500 g/ha [13] of 100%, a pest or weed control at 125 g/ha [14] of 10% and a pest or weed control at 500 g/ha [14] of 60%. The pest or weed control at 125 g/ha [15] was 40%, the pest or weed control at 500 g/ha [15] was 80% and the pest or weed control at 125 g/ha (kochia (Kochia scoparia) [16]) was 0%. For the same compound, the pest or weed control at 500 g/ha (kochia (Kochia scoparia) [16]) was 100%.
